The results in this text go back to US20050202505A1, “Method to identify modulators for human 3alpha-hydroxysteroid dehydrogenase” (priority 2001, published 2005).

One data set deals with T1, 3a-HSD (Homo sapiens, UniProt P52895).
T1 construct: Full length type III 3a-HSD cDNA is amplified by RT-PCR from human fetal brain total RNA; made in house; host or cells: E. coli BL21 (DE3)
T1 sequence (P52895 1-323): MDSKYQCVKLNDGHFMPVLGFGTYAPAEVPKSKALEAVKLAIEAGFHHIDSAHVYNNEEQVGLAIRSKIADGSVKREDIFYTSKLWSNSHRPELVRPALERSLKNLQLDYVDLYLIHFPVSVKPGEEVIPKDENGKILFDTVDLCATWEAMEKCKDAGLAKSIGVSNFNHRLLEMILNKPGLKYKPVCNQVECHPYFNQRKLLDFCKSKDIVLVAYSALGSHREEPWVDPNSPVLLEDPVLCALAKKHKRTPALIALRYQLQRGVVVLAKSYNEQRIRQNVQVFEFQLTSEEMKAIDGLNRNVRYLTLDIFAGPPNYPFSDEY
Description: NMR ligand binding (line broadening of ligand resonances in the presence of protein). The conditions noted are these: ligand resonances in the presence of 3a-HSD. The text has this: Binding of natural ligands is a prerequisite for functionality. One method to detect ligand binding by NMR takes advantage of the increased transverse relaxation rates of the ligand protons when the ligand is bound. Increased line widths in the presence of protein thus indicates binding. Binding experiments of NADP to 3a-HSD are done and check by NMR. In the presence of 3a-HSD, the NADP peaks are broadened so much that they are hardly visible in the spectrum.
(§1) Even then, the maximum achievable concentration of allo-pregnanolone is only about 20 μM. […] Based on the NMR analysis, 3a-HSD appears well-folded and functional in respect to cofactor- and ligand-binding.

Data set [1] is described as follows: maximum achievable concentration in aqueous NMR sample with co-solvents. The conditions noted are these: water with 2% DMSO-d6 and 5% ethanol as co-solvents. It is filed as physicochemical. On the procedure:
as §1

For data set [2], the target named is T2, recombinant type-3 human 3a-HSD (Homo sapiens, UniProt P52895).
T2 construct: Full length type III 3a-HSD cDNA is amplified by RT-PCR from human fetal brain total RNA; made in house; host or cells: E. coli BL21 (DE3)
T2 sequence (P52895 1-323): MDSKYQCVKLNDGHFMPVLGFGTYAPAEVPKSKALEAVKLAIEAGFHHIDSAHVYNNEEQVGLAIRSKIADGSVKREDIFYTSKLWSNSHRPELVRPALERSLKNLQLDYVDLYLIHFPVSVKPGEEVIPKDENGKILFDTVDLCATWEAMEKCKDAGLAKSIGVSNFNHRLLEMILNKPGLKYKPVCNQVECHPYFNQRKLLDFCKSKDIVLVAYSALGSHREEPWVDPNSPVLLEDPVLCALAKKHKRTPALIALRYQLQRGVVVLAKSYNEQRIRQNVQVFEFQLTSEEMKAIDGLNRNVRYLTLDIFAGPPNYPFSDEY
Description: functional in vitro assay, oxidation of 3H-ALLO to 3H-5α-DHP. The conditions noted are these: NADP+, pH 7.4, 37° C., read-out: Ki OX. Type of data set: biochemical. The text has this:
(§2) Materials: Steroid standards (>98% purity) were purchased from Sigma Chemical Co. ^3H-allopregnanolone (64 Ci/mmol, [9, 11, 12-^3H(N)]-allopregnanolone, herein after referred to as ^3H-ALLO) was purchased from New England Nuclear. ^3H-5α-dihydroprogesterone (^3H-5α-DHP) was synthesized in our lab using an enzymatic conversion of ^3H-ALLO to ^3H-5α-DHP by the 3a-HSD (see Enzymatic reactions). The oxidation product ^3H-5α-DHP was isolated and purified by semi-preparative HPLC and confirmed by GC/MS. All solvents were of analytical grade (Merck) and were used without further purification.
(§3) Enzymatic reactions (oxidation of ^3H-ALLO to ^3H-5α-DHP and reduction of ^3H-5α-DHP to ^3H-ALLO): All enzymatic reactions were performed using pure recombinant type-3 human 3a-HSD expressed in E. coli and refolded and purified from bacterial inclusion bodies. ^3H-5a-DHP reduction was conducted in 100 μl reaction systems containing 100 mM sodium phosphate (pH 7.4), 4 μg of recombinant enzyme, 2 mM NADPH and 2.5 μM ^3H-5α-DHP (40 000 cpm) in 4% acetonitrile. Similarly, ^3H-ALLO oxidation was conducted in 100 μl reaction systems containing 100 mM sodium phosphate (pH 7.4), 4 μg of recombinant enzyme, 2 mM NADP^+ and 2.5 μM ^3H-ALLO (40 000 cpm) in 4% acetonitrile. Reactions were initiated by the addition of the respective substrate and were incubated at 37° C. for 25 min. […]

The next data set concerns the target T3, 3a-HSD type III (Homo sapiens, UniProt P52895).
T3 construct: Full length type III 3a-HSD cDNA is amplified by RT-PCR from human fetal brain total RNA; made in house; host or cells: E. coli BL21 (DE3)
T3 sequence (P52895 1-323): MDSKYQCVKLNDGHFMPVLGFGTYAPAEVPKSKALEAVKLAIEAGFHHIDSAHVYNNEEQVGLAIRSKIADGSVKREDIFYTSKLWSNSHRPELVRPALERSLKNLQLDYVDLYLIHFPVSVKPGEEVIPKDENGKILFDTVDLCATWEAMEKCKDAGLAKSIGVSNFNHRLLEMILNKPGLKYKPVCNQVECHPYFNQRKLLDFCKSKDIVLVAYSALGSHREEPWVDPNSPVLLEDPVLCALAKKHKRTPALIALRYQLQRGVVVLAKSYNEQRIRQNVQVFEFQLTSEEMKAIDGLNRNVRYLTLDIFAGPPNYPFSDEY
Put plainly: NMR screening of fragment library. It is filed as binding. The text has this:
NMR spectroscopy can be used to discover and design inhibitors of 3a-HSD type III. This is due to the well-known ability of NMR to detect interactions between ligands and a target protein, even if the interactions are only weak and have affinities in the millimolar range (Diercks, T.; Coles, M.; Kessler, H. Applications of NMR in drug discovery. Curr. Opin. Chem. Biol. 2001, 5, 285-291; Hajduk, P. J.; Meadows, R. P.; Fesik, S. W. NMR-based screening in drug discovery. Q. Rev. Biophys. 1999, 32, 211-240; Pellecchia, M.; Sem, D. S.; Wuthrich, K. NMR in drug discovery. Nature Reviews Drug Discovery 2002, 1, 211-219). For this purpose, a solution of 3a-HSD is added to a mixture of compounds, and NMR properties of the compounds, such as their relaxation rates, are measured and compared in the presence and absence of 3a-HSD. […] This effect can be enhanced by about a factor of 15 if side chains of 3a-HSD are spin-labeled with paramagnetic centers such as TEMPO (2,2,6,6-Tetramethylpiperidin-N-oxyl) or PROXYL (2,2,5,5-Tetramethylpyrrolidine-N-oxyl) (Jahnke, W.; Ruedisser, S.; Zurini, M. Spin Label Enhanced NMR Screening. J. Am. Chem. Soc. 2001, 123, 3149-3150; Jahnke, W. Spin labels as a tool to identify and characterize protein—ligand interactions by NMR spectroscopy. ChemBioChem 2002, 3, 167-173). […]

Substrate in data set [3]: CC(=O)[C@H]1CC[C@H]2[C@@H]3CC[C@H]4C[C@H](O)CC[C@]4(C)[C@H]3CC[C@]12C
Put plainly: functional in vitro assay, oxidation of 3H-ALLO to 3H-5α-DHP. It is filed as biochemical. The conditions noted are these: other: oxidation of ALLO by the type-3 human 3a-HSD; pH 7.4; 37.0 °C.
Excerpt: as §2, §3

Consider `NC(=O)c1ccc[n+]([C@@H]2O[C@H](COP(=O)([O-])OP(=O)(O)OC[C@H]3O[C@@H](n4cnc5c(N)ncnc54)[C@H](OP(=O)(O)O)[C@@H]3O)[C@@H](O)[C@H]2O)c1` [NADP], for which, at 3a-HSD, the “binding to 3a-HSD detected by NMR line broadening” value was “proves binding”.

In the case of `CC(=O)[C@H]1CC[C@H]2[C@@H]3CC[C@H]4C[C@H](O)CC[C@]4(C)[C@H]3CC[C@]12C` [allopregnanolone, 3α-hydroxy-5a-pregnan-20-one], the maximum achievable concentration result in data set [1] is listed as “about 20 μM”. Also, the “binding to 3a-HSD detected by NMR line broadening” value on 3a-HSD is given as “proven”.

Regarding `CC(=O)c1cc2ccccc2o1` [2-acetylbenzofuran], the Ki in data set [2] was around 132 µM. The “binding to 3a-HSD” value on 3a-HSD type III (NMR screening hit) is on record as “only weakly”. The dissociation rate entry at 3a-HSD type III (observed by NMR, severe line broadening) is listed as “so slow”.

B1: recombinant type-3 human 3a-HSD (Homo sapiens) (protein)
chain: MDSKYQCVKLNDGHFMPVLGFGTYAPAEVPKSKALEAVKLAIEAGFHHIDSAHVYNNEEQVGLAIRSKIADGSVKREDIFYTSKLWSNSHRPELVRPALERSLKNLQLDYVDLYLIHFPVSVKPGEEVIPKDENGKILFDTVDLCATWEAMEKCKDAGLAKSIGVSNFNHRLLEMILNKPGLKYKPVCNQVECHPYFNQRKLLDFCKSKDIVLVAYSALGSHREEPWVDPNSPVLLEDPVLCALAKKHKRTPALIALRYQLQRGVVVLAKSYNEQRIRQNVQVFEFQLTSEEMKAIDGLNRNVRYLTLDIFAGPPNYPFSDEY
As for B1, in data set [3], the Km worked out at 4.9 µM.
